Values joined by “and” are separate entries in the source; they are usually repeats but may differ in a detail not shown here. Equal entries are not always repeated. Numbers after ± are expanded uncertainties.
Assay: xn = mol fraction of the nth substance listed
Details: Fluid (supercritical or subcritical phases), quasistatic thermogram and barogram, x2 = 0.7393

Compound: N [ammonia] + O
- thermal pressure coefficient (594.84 K, Mass density=120.03 kg/m3): 91 ± 3 kPa/K
- thermal pressure coefficient (594.84 K, Mass density=147.43 kg/m3): 126 ± 4 kPa/K
- thermal pressure coefficient (595.16 K, Mass density=376.89 kg/m3): 205 kPa/K and 295 kPa/K
- thermal pressure coefficient (595.35 K, Mass density=147.43 kg/m3): 124 ± 4 kPa/K
- thermal pressure coefficient (595.35 K, Mass density=456.58 kg/m3): 451 ± 2 kPa/K
- thermal pressure coefficient (595.53 K, Mass density=342.18 kg/m3): 199 ± 1 kPa/K
- thermal pressure coefficient (595.61 K, Mass density=285.71 kg/m3): 196 ± 6 kPa/K
- thermal pressure coefficient (595.78 K, Mass density=309.95 kg/m3): 200 ± 6 kPa/K
- thermal pressure coefficient (595.78 K, Mass density=376.89 kg/m3): 296 ± 2 kPa/K
- thermal pressure coefficient (596.04 K, Mass density=160.07 kg/m3): 183 ± 6 kPa/K
- thermal pressure coefficient (596.04 K, Mass density=227.54 kg/m3): 195 ± 6 kPa/K
- thermal pressure coefficient (596.47 K, Mass density=308.35 kg/m3): 205 ± 6 kPa/K
- thermal pressure coefficient (596.73 K, Mass density=307.35 kg/m3): 201 ± 6 kPa/K
- thermal pressure coefficient (596.9 K, Mass density=271.09 kg/m3): 199 ± 6 kPa/K
- thermal pressure coefficient (597.08 K, Mass density=342.18 kg/m3): 198 ± 1 kPa/K
- thermal pressure coefficient (597.33 K, Mass density=160.07 kg/m3): 151 ± 5 kPa/K
- thermal pressure coefficient (597.33 K, Mass density=311.19 kg/m3): 199 ± 6 kPa/K
- thermal pressure coefficient (597.33 K, Mass density=376.89 kg/m3): 306 ± 2 kPa/K
- thermal pressure coefficient (597.35 K, Mass density=160.07 kg/m3): 174 kPa/K and 147 kPa/K
- thermal pressure coefficient (597.42 K, Mass density=295.31 kg/m3): 196 ± 6 kPa/K
- thermal pressure coefficient (597.5 K, Mass density=188.05 kg/m3): 187 ± 6 kPa/K
- thermal pressure coefficient (597.56 K, Mass density=342.18 kg/m3): 197 kPa/K and 261 kPa/K
- thermal pressure coefficient (597.59 K, Mass density=218.92 kg/m3): 197 ± 6 kPa/K
- thermal pressure coefficient (597.76 K, Mass density=292.97 kg/m3): 199 ± 6 kPa/K
- thermal pressure coefficient (598.19 K, Mass density=224.53 kg/m3): 198 ± 6 kPa/K
- thermal pressure coefficient (598.28 K, Mass density=376.89 kg/m3): 311 ± 1 kPa/K
- thermal pressure coefficient (598.33 K, Mass density=329 kg/m3): 195 kPa/K and 249 kPa/K
- thermal pressure coefficient (598.36 K, Mass density=160.07 kg/m3): 140 ± 4 kPa/K
- thermal pressure coefficient (598.45 K, Mass density=320.33 kg/m3): 197 ± 6 kPa/K
- thermal pressure coefficient (598.54 K, Mass density=297.6 kg/m3): 191 ± 6 kPa/K
- thermal pressure coefficient (598.57 K, Mass density=301.94 kg/m3): 199 ± 6 kPa/K
- thermal pressure coefficient (598.63 K, Mass density=291.16 kg/m3): 201 ± 6 kPa/K
- thermal pressure coefficient (598.71 K, Mass density=297.6 kg/m3): 192 ± 6 kPa/K
- thermal pressure coefficient (598.96 K, Mass density=243.97 kg/m3): 201 ± 6 kPa/K
- thermal pressure coefficient (598.96 K, Mass density=320.33 kg/m3): 192 kPa/K and 246 kPa/K
- thermal pressure coefficient (598.97 K, Mass density=376.89 kg/m3): 311 ± 1 kPa/K
- thermal pressure coefficient (599.05 K, Mass density=160.07 kg/m3): 139 ± 4 kPa/K
- thermal pressure coefficient (599.05 K, Mass density=299.79 kg/m3): 192 ± 6 kPa/K
- thermal pressure coefficient (599.05 K, Mass density=329 kg/m3): 258 ± 9 kPa/K
- thermal pressure coefficient (599.14 K, Mass density=160.07 kg/m3): 137 ± 4 kPa/K
- thermal pressure coefficient (599.22 K, Mass density=214.43 kg/m3): 201 ± 6 kPa/K
- thermal pressure coefficient (599.42 K, Mass density=312.91 kg/m3): 192 kPa/K and 244 kPa/K
- thermal pressure coefficient (599.44 K, Mass density=320.33 kg/m3): 250 ± 8 kPa/K
- thermal pressure coefficient (599.52 K, Mass density=206.01 kg/m3): 198 ± 6 kPa/K
- thermal pressure coefficient (599.57 K, Mass density=311.19 kg/m3): 193 kPa/K and 240 kPa/K
- thermal pressure coefficient (599.57 K, Mass density=456.58 kg/m3): 456 ± 2 kPa/K
- thermal pressure coefficient (599.67 K, Mass density=309.95 kg/m3): 192 kPa/K and 236 kPa/K
- thermal pressure coefficient (599.78 K, Mass density=308.35 kg/m3): 192 kPa/K and 234 kPa/K
- thermal pressure coefficient (599.89 K, Mass density=307.35 kg/m3): 192 kPa/K and 231 kPa/K
- thermal pressure coefficient (599.91 K, Mass density=295.31 kg/m3): 196 ± 6 kPa/K
- thermal pressure coefficient (600.02 K, Mass density=305.44 kg/m3): 192 kPa/K and 229 kPa/K
- thermal pressure coefficient (600.17 K, Mass density=195.99 kg/m3): 195 ± 6 kPa/K
- thermal pressure coefficient (600.17 K, Mass density=303.47 kg/m3): 192 kPa/K and 229 kPa/K
- thermal pressure coefficient (600.29 K, Mass density=301.94 kg/m3): 192 kPa/K and 228 kPa/K
- thermal pressure coefficient (600.48 K, Mass density=299.79 kg/m3): 193 kPa/K and 226 kPa/K
- thermal pressure coefficient (600.59 K, Mass density=309.95 kg/m3): 248 ± 9 kPa/K
- thermal pressure coefficient (600.63 K, Mass density=297.6 kg/m3): 193 kPa/K and 225 kPa/K
- thermal pressure coefficient (600.68 K, Mass density=230.31 kg/m3): 200 ± 6 kPa/K
- thermal pressure coefficient (600.77 K, Mass density=308.35 kg/m3): 240 ± 8 kPa/K
- thermal pressure coefficient (600.81 K, Mass density=295.31 kg/m3): 193 kPa/K and 224 kPa/K
- thermal pressure coefficient (600.93 K, Mass density=292.97 kg/m3): 194 kPa/K and 224 kPa/K
- thermal pressure coefficient (600.94 K, Mass density=260.02 kg/m3): 193 ± 6 kPa/K
- thermal pressure coefficient (600.94 K, Mass density=305.44 kg/m3): 237 ± 7 kPa/K
- thermal pressure coefficient (601.02 K, Mass density=291.16 kg/m3): 192 ± 6 kPa/K
- thermal pressure coefficient (601.02 K, Mass density=342.18 kg/m3): 281 ± 1 kPa/K
- thermal pressure coefficient (601.05 K, Mass density=291.16 kg/m3): 193 kPa/K and 223 kPa/K
